Tests used:
[1] = Stabilization of carnosic acid in 60% ethanol rosemary extract with added acids, kept in the dark; type: physicochemical
Procedure: To 4.0 litre of ethanol (60%) are added 500 gr. of dried and finely ground rosemary leaves, having a concentration of 4.3% carnosic acid. Extraction is done for 3 hours at room temperature. 3.22 litre of extract are obtained by vacuum filtration of the biomass. The concentrate is divided to 200 ml. portions where different acids at various concentrations are added to these portions. All portions are kept in the dark and the variations in the carnosic acid concentrations of the different portions are checked. […] Only under acidic conditions is the concentration of carnosic acid retained where the optimal acids are phosphoric and ascorbic acid.

[2] = identified by Brieskorn and Domling in 1964; cited from earlier work
[3] = Exposure of carnosic acid in an extract to room temperature and light; type: physicochemical; conditions: pH of the extract above 6
stephilococus = conditions: against stephilococus and dental caries, reported; cited from earlier work

CC(C)c1cc2c(c(O)c1O)[C@@]1(C(=O)O)CCCC(C)(C)[C@@H]1CC2 [carnosic acid]
Concentration of Carnosic ([1]; Acetic 1%, +2 Hours): 4770 µg/mL
Concentration of Carnosic ([1]; Acetic 1%, +5 Hours): 4740 µg/mL
Concentration of Carnosic ([1]; Acetic 1%, +1 hour): 4760 µg/mL
Concentration of Carnosic ([1]; Acetic 1%, +24 hour): 4590 µg/mL
Concentration of Carnosic ([1]; Acetic 1%, +48 hours): 4260 µg/mL
Concentration of Carnosic ([1]; Acetic 1%, Time Zero): 4800 µg/mL
Concentration of Carnosic ([1]; Acetic 2%, +2 Hours): 4690 µg/mL
Concentration of Carnosic ([1]; Acetic 2%, +5 Hours): 4710 µg/mL
Concentration of Carnosic ([1]; Acetic 2%, +1 hour): 4790 µg/mL
Concentration of Carnosic ([1]; Acetic 2%, +24 hour): 4490 µg/mL
Concentration of Carnosic ([1]; Acetic 2%, +48 hours): 4230 µg/mL
Concentration of Carnosic ([1]; Acetic 2%, Time Zero): 4800 µg/mL
Concentration of Carnosic ([1]; Ascorbic 0.05%, +2 Hours): 4710 µg/mL
Concentration of Carnosic ([1]; Ascorbic 0.05%, +5 Hours): 4680 µg/mL
Concentration of Carnosic ([1]; Ascorbic 0.05%, +1 hour): 4750 µg/mL
Concentration of Carnosic ([1]; Ascorbic 0.05%, +24 hour): 4780 µg/mL
Concentration of Carnosic ([1]; Ascorbic 0.05%, +48 hours): 4790 µg/mL
Concentration of Carnosic ([1]; Ascorbic 0.05%, Time Zero): 4800 µg/mL
Concentration of Carnosic ([1]; Ascorbic 0.1%, +2 Hours): 4710 µg/mL
Concentration of Carnosic ([1]; Ascorbic 0.1%, +5 Hours): 4720 µg/mL
Concentration of Carnosic ([1]; Ascorbic 0.1%, +1 hour): 4740 µg/mL
Concentration of Carnosic ([1]; Ascorbic 0.1%, +24 hour): 4790 µg/mL
Concentration of Carnosic ([1]; Ascorbic 0.1%, +48 hours): 4790 µg/mL
Concentration of Carnosic ([1]; Ascorbic 0.1%, Time Zero): 4800 µg/mL
Concentration of Carnosic ([1]; Ascorbic 0.5%, +2 Hours): 4830 µg/mL
Concentration of Carnosic ([1]; Ascorbic 0.5%, +5 Hours): 4820 µg/mL
Concentration of Carnosic ([1]; Ascorbic 0.5%, +1 hour): 4860 µg/mL
Concentration of Carnosic ([1]; Ascorbic 0.5%, +24 hour): 4810 µg/mL
Concentration of Carnosic ([1]; Ascorbic 0.5%, +48 hours): 4820 µg/mL
Concentration of Carnosic ([1]; Ascorbic 0.5%, Time Zero): 4800 µg/mL
Concentration of Carnosic ([1]; Ascorbic 1%, +2 Hours): 4840 µg/mL
Concentration of Carnosic ([1]; Ascorbic 1%, +5 Hours): 4840 µg/mL
Concentration of Carnosic ([1]; Ascorbic 1%, +1 hour): 4830 µg/mL
Concentration of Carnosic ([1]; Ascorbic 1%, +24 hour): 4820 µg/mL
Concentration of Carnosic ([1]; Ascorbic 1%, +48 hours): 4800 µg/mL
Concentration of Carnosic ([1]; Ascorbic 1%, Time Zero): 4800 µg/mL
Concentration of Carnosic ([1]; Citric 0.1%, +2 Hours): 4560 µg/mL
Concentration of Carnosic ([1]; Citric 0.1%, +5 Hours): 4490 µg/mL
Concentration of Carnosic ([1]; Citric 0.1%, +1 hour): 4730 µg/mL
Concentration of Carnosic ([1]; Citric 0.1%, +24 hour): 4270 µg/mL
Concentration of Carnosic ([1]; Citric 0.1%, +48 hours): 4130 µg/mL
Concentration of Carnosic ([1]; Citric 0.1%, Time Zero): 4800 µg/mL
Concentration of Carnosic ([1]; Citric 0.5%, +2 Hours): 4580 µg/mL
Concentration of Carnosic ([1]; Citric 0.5%, +5 Hours): 4530 µg/mL
Concentration of Carnosic ([1]; Citric 0.5%, +1 hour): 4760 µg/mL
Concentration of Carnosic ([1]; Citric 0.5%, +24 hour): 4510 µg/mL
Concentration of Carnosic ([1]; Citric 0.5%, +48 hours): 4220 µg/mL
Concentration of Carnosic ([1]; Citric 0.5%, Time Zero): 4800 µg/mL
Concentration of Carnosic ([1]; Citric 1%, +2 Hours): 4530 µg/mL
Concentration of Carnosic ([1]; Citric 1%, +5 Hours): 4560 µg/mL
Concentration of Carnosic ([1]; Citric 1%, +1 hour): 4760 µg/mL
Concentration of Carnosic ([1]; Citric 1%, +24 hour): 4560 µg/mL
Concentration of Carnosic ([1]; Citric 1%, +48 hours): 4420 µg/mL
Concentration of Carnosic ([1]; Citric 1%, Time Zero): 4800 µg/mL
Concentration of Carnosic ([1]; Control, acid 0%, +2 Hours): 4420 µg/mL
Concentration of Carnosic ([1]; Control, acid 0%, +5 Hours): 4270 µg/mL
Concentration of Carnosic ([1]; Control, acid 0%, +1 hour): 4510 µg/mL
Concentration of Carnosic ([1]; Control, acid 0%, +24 hour): 3550 µg/mL
Concentration of Carnosic ([1]; Control, acid 0%, +48 hours): 2780 µg/mL
Concentration of Carnosic ([1]; Control, acid 0%, Time Zero): 4800 µg/mL
Concentration of Carnosic ([1]; HCI 0.1%, +2 Hours): 4680 µg/mL
Concentration of Carnosic ([1]; HCI 0.1%, +5 Hours): 4520 µg/mL
Concentration of Carnosic ([1]; HCI 0.1%, +1 hour): 4720 µg/mL
Concentration of Carnosic ([1]; HCI 0.1%, +24 hour): 3690 µg/mL
Concentration of Carnosic ([1]; HCI 0.1%, +48 hours): 2930 µg/mL
Concentration of Carnosic ([1]; HCI 0.1%, Time Zero): 4800 µg/mL
Concentration of Carnosic ([1]; HCI 1%, +2 Hours): 4720 µg/mL
Concentration of Carnosic ([1]; HCI 1%, +5 Hours): 4530 µg/mL
Concentration of Carnosic ([1]; HCI 1%, +1 hour): 4780 µg/mL
Concentration of Carnosic ([1]; HCI 1%, +24 hour): 4540 µg/mL
Concentration of Carnosic ([1]; HCI 1%, +48 hours): 4390 µg/mL
Concentration of Carnosic ([1]; HCI 1%, Time Zero): 4800 µg/mL
Concentration of Carnosic ([1]; HCI 2%, +2 Hours): 4700 µg/mL
Concentration of Carnosic ([1]; HCI 2%, +5 Hours): 4580 µg/mL
Concentration of Carnosic ([1]; HCI 2%, +1 hour): 4760 µg/mL
Concentration of Carnosic ([1]; HCI 2%, +24 hour): 4460 µg/mL
Concentration of Carnosic ([1]; HCI 2%, +48 hours): 4420 µg/mL
Concentration of Carnosic ([1]; HCI 2%, Time Zero): 4800 µg/mL
Concentration of Carnosic ([1]; Phosphoric 1%, +2 Hours): 4790 µg/mL
Concentration of Carnosic ([1]; Phosphoric 1%, +5 Hours): 4760 µg/mL
Concentration of Carnosic ([1]; Phosphoric 1%, +1 hour): 4820 µg/mL
Concentration of Carnosic ([1]; Phosphoric 1%, +24 hour): 4780 µg/mL
Concentration of Carnosic ([1]; Phosphoric 1%, +48 hours): 4790 µg/mL
Concentration of Carnosic ([1]; Phosphoric 1%, Time Zero): 4800 µg/mL
Concentration of Carnosic ([1]; Phosphoric 2%, +2 Hours): 4790 µg/mL
Concentration of Carnosic ([1]; Phosphoric 2%, +5 Hours): 4750 µg/mL
Concentration of Carnosic ([1]; Phosphoric 2%, +1 hour): 4770 µg/mL
Concentration of Carnosic ([1]; Phosphoric 2%, +24 hour): 4810 µg/mL
Concentration of Carnosic ([1]; Phosphoric 2%, +48 hours): 4780 µg/mL
Concentration of Carnosic ([1]; Phosphoric 2%, Time Zero): 4800 µg/mL
period for which carnosic acid is stable ([1]; in acidic polar solution containing water, lower alkyl alcohol and acid): more than 24 hours
decrease of carnosic acid ([1]; lack of acid): 50%
antioxidant activity [2]: very potent antioxidant
change in concentration of carnosic acid [3]: marked decrease
antibiotic action (stephilococus): antibiotic action

From patent publication US6335373B1, “Process to produce stabilized carnosic acid in high concentration” (Lycored Natural Products Industries, Ltd., priority 2000, dated 2002)
